# Earlier results as cited in patent EP1964550A1, “Glucocorticoid-nitrooxyderivative compositions” (NicOx S.A., priority 2007, dated 2008).
# Tested on: irritant acute dermatitis
# Conditions: oedema formation and recruitment of leukocytes evaluated; compared with parent compound hydrocortisone
structure (smiles),measurement,value
C[C@]12CCC(=O)C=C1CC[C@@H]1[C@@H]2[C@@H](O)C[C@@]2(C)[C@H]1CC[C@]2(O)C(=O)COC(=O)c1ccc(CO[N+](=O)[O-])cc1 [hydrocortisone 21-[4'-(nitrooxymethyl)benzoate]],anti-inflammatory activity,higher anti-inflammatory activity than the parent compound hydrocortisone
